In publication PMC3795843 (Journal of molecular biology, 2013):

Legend:
Ded1p = Ded1p (Saccharomyces cerevisiae, UniProt P06634); experiment: fluorescence competition with mantADP; assay type: binding; details: no RNA; pH 8.0, 50 mM NaCl, 0.5 mM excess Mg2+, 19 °C
Dbp5p = molecular target: T1, Dbp5p (Saccharomyces cerevisiae, UniProt P20449); experiment: inhibition of RNA duplex unwinding, native PAGE; assay type: biochemical; details: 0.5 mM nucleotide, 0.5 mM ATP, 40 mM Hepes pH 7.5, 30 °C
T1 sequence (P20449 1-482): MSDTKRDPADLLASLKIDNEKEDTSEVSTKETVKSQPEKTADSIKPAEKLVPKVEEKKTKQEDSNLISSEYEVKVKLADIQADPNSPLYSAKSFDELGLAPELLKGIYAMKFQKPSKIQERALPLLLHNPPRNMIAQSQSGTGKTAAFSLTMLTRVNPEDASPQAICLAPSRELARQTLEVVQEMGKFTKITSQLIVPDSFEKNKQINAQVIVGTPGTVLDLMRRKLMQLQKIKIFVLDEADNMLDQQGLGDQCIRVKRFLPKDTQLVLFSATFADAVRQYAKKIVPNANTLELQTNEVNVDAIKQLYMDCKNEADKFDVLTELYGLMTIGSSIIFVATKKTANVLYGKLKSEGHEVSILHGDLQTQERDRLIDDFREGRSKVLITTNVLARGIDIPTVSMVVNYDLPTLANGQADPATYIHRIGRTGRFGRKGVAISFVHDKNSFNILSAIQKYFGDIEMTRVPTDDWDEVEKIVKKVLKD

Sub2p = molecular target: T2, Sub2p (Saccharomyces cerevisiae, UniProt Q07478); experiment: inhibition of RNA duplex unwinding, native PAGE; assay type: biochemical; details: 0.5 mM nucleotide, 0.5 mM ATP, 10 mM Tris pH 7.0, 50 mM KCl, 30 °C
T2 sequence (Q07478 2-446): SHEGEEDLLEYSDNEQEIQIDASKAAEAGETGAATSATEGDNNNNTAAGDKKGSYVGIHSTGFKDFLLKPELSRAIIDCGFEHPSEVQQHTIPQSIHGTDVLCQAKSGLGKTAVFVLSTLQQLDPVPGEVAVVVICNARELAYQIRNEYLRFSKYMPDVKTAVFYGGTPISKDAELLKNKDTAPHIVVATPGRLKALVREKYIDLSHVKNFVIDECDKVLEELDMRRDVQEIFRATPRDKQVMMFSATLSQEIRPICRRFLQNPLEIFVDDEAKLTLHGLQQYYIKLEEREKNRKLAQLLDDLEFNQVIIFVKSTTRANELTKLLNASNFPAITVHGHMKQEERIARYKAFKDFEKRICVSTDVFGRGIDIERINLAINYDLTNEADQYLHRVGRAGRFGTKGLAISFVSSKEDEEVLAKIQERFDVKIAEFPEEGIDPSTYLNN

Sequence of Ded1p (P06634 2-604): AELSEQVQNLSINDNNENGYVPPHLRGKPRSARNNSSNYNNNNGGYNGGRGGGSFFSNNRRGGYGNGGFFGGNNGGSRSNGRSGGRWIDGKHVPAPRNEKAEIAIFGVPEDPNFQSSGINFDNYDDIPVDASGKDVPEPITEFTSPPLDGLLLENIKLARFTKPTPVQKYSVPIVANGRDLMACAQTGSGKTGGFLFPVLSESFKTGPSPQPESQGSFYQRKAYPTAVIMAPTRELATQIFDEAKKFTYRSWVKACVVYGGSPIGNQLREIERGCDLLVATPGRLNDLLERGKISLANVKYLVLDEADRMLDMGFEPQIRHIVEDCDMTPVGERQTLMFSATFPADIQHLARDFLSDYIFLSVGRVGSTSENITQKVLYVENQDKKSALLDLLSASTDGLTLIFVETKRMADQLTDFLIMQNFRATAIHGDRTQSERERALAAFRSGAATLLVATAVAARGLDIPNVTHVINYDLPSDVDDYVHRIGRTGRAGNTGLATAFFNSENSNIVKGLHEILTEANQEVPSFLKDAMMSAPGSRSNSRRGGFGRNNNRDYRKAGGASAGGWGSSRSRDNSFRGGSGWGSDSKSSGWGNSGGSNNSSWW

Nc1ncnc2c1ncn2[C@@H]1O[C@H](COP(=O)(O)OP(=O)(O)OP(=O)(O)O)[C@@H](O)[C@H]1O [ATP]
K1/2 (Ded1p): Binding of ATP (red), ADP (blue), and AMP (green) to Ded1p in the absence of RNA

Nc1ncnc2c1ncn2[C@@H]1O[C@H](COP(=O)(O)OP(=O)(O)O)[C@@H](O)[C@H]1O [ADP]
kunw (Dbp5p): Sub2p and Dbp5p showed only significant inhibition by ADP | kunw (Sub2p): Sub2p and Dbp5p showed only significant inhibition by ADP
